According to patent US9642909B2, “Pharmaceutical compositions comprising attenuated Plasmodium sporozoites and glycolipid adjuvants” (Sanaria Inc., priority 2011, dated 2017):
Several values for one entry are separate records, joined by “and”; a condition that tells them apart may be missing. Equal entries are not always repeated. Where two headings read alike, the source gives them in different places.

How the values were obtained:
[1] = test system: pathogenic P. yoelii sporozoites; experiment: Protection of BALB/c mice after intradermal immunization with irr PySPZ mixed with 7DW8-5 at base of tail; type: in vivo
Procedure: To determine whether protective immunogenicity of attenuated sporozoites is maintained or enhanced in the presence of 7DW8-5, mice were immunized by intradermal (ID) injection alone, with 2 doses at 2-week intervals of 15,000, 10,000, 5,000 and 2,500 sporozoites and unlike Examples 1-5, 1 μg 7DW8-5 was mixed as a composition with sporozoites and the composition of adjuvant and sporozoites was delivered ID at the base of the tail. With 2 doses of 15,000 sporozoites in the presence of adjuvant 100% of the mice were protected, and at lower doses of sporozoites 60-80% of the mice were protected. In the absence of adjuvant, only 40% of mice receiving 2 doses of 15,000 sporozoites were protected.
Protection conferred by a single dose of a composition of 1 μg 7DW8-5 adjuvant and varying amounts of sporozoites delivered ID was measured. For this 15,000 and 30,000 sporozoites were administered to mice ID as described above. These doses were partially protective at 60% and 40% respectively.
The next step in development was to assess purified irr PySPZ BALB/c/mice were immunized with irr PySPZ purified as described, in the presence or absence of 7DW8-5 adjuvant.

[2] = test system: pathogenic P. yoelii sporozoites; experiment: Protection of BALB/c mice against pathogenic P. yoelii sporozoite challenge after a single IV dose of irr PySPZ with or without 7DW8-5 IP; type: in vivo
Procedure: To determine if the adjuvant 7DW8-5 could decrease the number of doses of irr PySPZ required to confer protection, a suboptimal dosing regimen was performed. irr PySPZ (17NXL) were dissected from the salivary glands of A. stephensi mosquitoes and injected intravenously (IV) into BALB/c mice as a single dose of either of 5×10^4 or 1×10^4 sporozoites. Two μg of 7DW8-5 was concurrently administered intraperitoneally (IP) in some mice. Fourteen days later, mice were challenged with 100 non-irradiated pathogenic P. yoelii sporozoites. Protection was assessed by Giemsa-stained blood smears and was defined as the complete absence of parasitemia 7 and 14 days post infection.
A second experiment was performed to confirm the results shown in Example 1. […] Again, adjuvant in the absence of antigen had no effect.
Using the single dose methodology of Example 1 with radiation attenuated Py sporozoites that have been purified using the purification procedure disclosed in Sim et al. (U.S. Pat. No. 8,043,625, incorporated in its entirety herein by reference) a third experiment was performed. Using 1×10^4 purified sporozoites administered IV in a single dose, 3 out of 10 mice were protected, whereas 7 of 10 mice were protected when the adjuvant was concurrently administered IP.
To determine the optimal single dose of attenuated sporozoites (in conjunction with 7DW8-5 concurrently administered distally IP) that confers protection by the IV route, mice were injected IV with 0, 2500, 5000, 10,000 and 20,000 sporozoites. Two μg of 7DW8-5 were injected IP.

iNKT cells [3] = conditions: human; cited from earlier work
[4] = test system: pathogenic P. yoelii sporozoites; conditions: versus α-GalCer, cited from earlier work
iNKT cells [5] = conditions: mouse; cited from earlier work
[6] = test system: IFN-γ-secreting CS-specific CD8+ cells; conditions: irradiated sporozoites SC with α-GalCer by the same route vs without; cited from earlier work
CD1d = CD1d (Homo sapiens, UniProt P15813); conditions: cited from earlier work
[7] = pre-loaded autologous PBMCs or direct injection; cited from earlier work
[8] = summary of Examples 1-3, one dose irr PySPZ IV, 7DW8-5 IP where given

Chain of CD1d (P15813 20-335, species assumed): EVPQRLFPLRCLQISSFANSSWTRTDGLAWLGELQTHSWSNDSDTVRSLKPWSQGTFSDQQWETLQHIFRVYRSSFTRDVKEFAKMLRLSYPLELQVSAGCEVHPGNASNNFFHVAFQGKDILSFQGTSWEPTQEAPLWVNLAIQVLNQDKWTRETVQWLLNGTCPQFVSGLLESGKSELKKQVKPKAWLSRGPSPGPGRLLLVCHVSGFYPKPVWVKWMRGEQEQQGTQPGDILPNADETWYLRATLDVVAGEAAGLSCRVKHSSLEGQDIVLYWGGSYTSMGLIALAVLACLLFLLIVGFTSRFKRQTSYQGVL
Chain of CD1d (P61769 21-119 partner, species assumed): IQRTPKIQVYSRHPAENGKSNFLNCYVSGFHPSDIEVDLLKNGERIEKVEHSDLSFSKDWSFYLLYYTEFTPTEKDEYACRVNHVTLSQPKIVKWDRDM

SMILES | # protected/# challenged ([1]; Example 6, 0 sporozoites, 1 μg 7DW8-5 per mouse ID) | protection ([1]; Example 8, adjuvant alone) | # protected/# challenged ([2]; Example 1, 2 μg 7DW8-5 IP alone, no sporozoites) | # protected/# challenged ([2]; Example 2, 2 μg 7DW8-5 IP alone, no sporozoites) | # protected/# challenged ([2]; Example 3, 2 μg 7DW8-5 IP alone, no sporozoites) | First Challenge # protected/# re-challenged ([2]; Example 4 table, first challenge, 2 μg 7DW8-5 IP alone) | # protected/# challenged ([2]; Example 5, 0 sporozoites, 2 μg 7DW8-5 IP) | percent protected [2, 8] | protected/challenged [2, 8] | ability to elicit cytokine production from iNKT cells (iNKT cells [3]) | malaria-specific humoral response ([4]; co-administered IM with adenovirus vaccine) | malaria-specific CD8+ T cell response ([4]; co-administered IM with suboptimal dose of adenovirus vaccine) | adjuvant effect in enhancing protective efficacy ([4]; single immunizing dose of adenovirus recombinant vaccine) | ability to elicit cytokine production from iNKT cells (iNKT cells [5]) | increase in number of IFN-γ-secreting CS-specific CD8+ cells [6] | activation of iNKT cells (iNKT cells [3]) | activation of iNKT cells (iNKT cells [5]) | affinity for CD1d (CD1d) | safety and tolerability [7]
CCCCCCCCCCCCCC[C@@H](O)[C@@H](O)[C@H](COC1OC(CO)C(O)C(O)C1O)NC(=O)CCCCCCCCCCc1ccc(F)cc1 (stereo partly shown) [7DW8-5] | 0/5 | No protection | no protection and 0/5 | no effect and 0/5 | 0/5 | 0/5 | 0/5 | 0% | 0/15 | superior ability | equally if not slightly stronger than α-GalCer | significantly more than α-GalCer | significantly stronger adjuvant effect than α-GalCer | superior ability | – | – | – | – | –
CCCCCCCCCCCCCCCCCCCCCCCCCC(=O)N[C@@H](CO[C@H]1O[C@H](CO)[C@H](O)[C@H](O)[C@H]1O)[C@H](O)[C@H](O)CCCCCCCCCCCCCC [α-GalCer, α-galactosylceramide] | – | – | – | – | – | – | – | – | – | – | – | – | – | – | seven fold | potent activator | potent activator | high affinity | safe and well tolerated
